The record followed here is patent US6893659B2, “Pharmaceutical composition for oral administration of a N-piperidino-3- pyrazolecarboxamide derivative, its salts and their solvates” (Sanoti-Synthelabo, priority 1997, dated 2005).

Series [1] is described as follows: Instantaneous solubility of the compounds of formula (I) in aqueous media. It counts as physicochemical. The note with it: for Solubility, dissolution medium Acetic buffer pH 7.5 / Solubility, dissolution medium Phosphate buffer pH 7.5 / Solubility, dissolution medium Water / Solubility, dissolution medium Water + 10% ethanol: instantaneous solubility, room temperature. As for the experimental part: (§1) Furthermore, the hydrophobic character of the compounds of formula (I) is very strongly pronounced. […] These compounds are soluble in alcohols and glycols and more particularly in polyethylene glycols (PEG).
The solubilities of the compounds of formula (I) are measured in different aqueous media. The instantaneous solubility is evaluated at room temperature by quantitative analysis. The results, expressed in μg per ml, are collated in Table 1 below: […]

Series [2] can be described thus: Kinetics of dissolution in a gastric medium. It counts as physicochemical. The note with it: 40 mg in one liter, phosphate-citrate buffer pH 3, 37° C., no surfactant. As for the experimental part:
The kinetics of dissolution of different formulations in a gastric medium were studied at 37° C. in a phosphate-citrate buffer of pH 3 for 30 minutes. […]
6 tests were carried out for each formulation and the amount of compound A dissolved in the medium was measured every 5 minutes.
Table 7 indicates the mean value of the percentage of compound A dissolved and the standard deviation relative to this value for the different formulations described in Table 6.

Series [3] is described as follows: Wettability by H. Mohamad's method. It counts as physicochemical.
Description: as §1
The wettability of compound A was studied in different formulations using the method of H. Mohamad et al., Labo Pharma. Problèmes techniques, 1984, 32 (346), 284-289.

A short description of series [4]: Solubility of compound A in solvents and after dilution of the solutions in water. It counts as physicochemical. The conditions noted are these: for solubility: organic solvent or mixture. As to the method:
as §1
However, when the solutions obtained with an alcohol or a glycol are diluted in an aqueous medium, the compound of formula (I) precipitates because of its strongly hydrophobic character.
Measurements were also made of the solubility of compound A in different solvents (Table 2) and after dilution in water of the solutions formed (Table 3).

For a further series, the system named is Caco-2 cells. The series is described as follows: Intestinal transepithelial passage across Caco-2 monolayer. It counts as in vitro ADME. As to the method: (§2) The permeability of the epithelium of the compounds is evaluated using the Caco-2 cell line, which has the characteristic of undergoing differentiation in vitro to form an epithelial monolayer (Crit. Rev. Ther. Drug Carrier System, 1991, 8 (4), 105-330). In this model the permeability of compound A dissolved in dimethyl sulfoxide (DMSO) is high, showing that it has a good ability to be absorbed by the intestine when it is in solution.
(§3) Caco-2 cells are cultured onto microporous polycarbonate filters covered with collagen. The cellular monolayer formed on the filter then makes it possible to separate an apical compartment (imitating the intestinal lumen) from a basal compartment (imitating the blood circulation).
(§4) The composition containing the compound to be studied is placed on the apical side and the passage of this compound, dispersed or solubilized in Hank's medium, through this cellular barrier is evaluated by measuring the kinetics of its appearance on the basal side. This aqueous medium, of pH 6.5, has the following composition: NaCl=8.0 g/l; KCl=0.4 g/l; CaCl2=0.19 g/l; MgCl2=0.1 g/l; MgSO4=0.1 g/l; Na2HPO4=0.09 g/l; KH2PO4=0.06 g/l; NaHCO3=0.35 g/l; glucose=1 g/l; phenol red=0.01 g/l.
(§5) The coefficient of permeability P, in cm/s, is then determined; this characterizes the rate of passage of the molecule through the membrane, namely: P=(da/dt).(1/A.Co) • where: • da/dt=variation of the amount of test compound passing through the cellular monolayer as a function of time (mol/s) • A=surface area of the monolayer (cm^2) • Co=initial concentration of the test compound (mol/l)

Experiment in series [5]: as above
It counts as in vitro ADME. The conditions noted are these: human, Caco-2; introduced in Hank's medium pH 6.5, in solution in DMSO; apical to basal; read-out: Coefficient of permeability P. As to the method: as §2, §3, §4, §5
Background: Passage across Caco-2 layers is used to estimate intestinal permeability.

[6] abbreviates: ethanol solution, dilution in water 10%.
Where [7] appears, read: polyethylene glycol 400 solution, dilution in water 30%.

In brackets after ≈: the same amount, converted by molar mass. Counter-ions that a name gives are not always drawn.

For `Cc1c(C(=O)NN2CCCCC2)nn(-c2ccc(Cl)cc2Cl)c1-c1ccc(Cl)cc1` [Hydrochloride (solvated)], in series [1], the “Solubility, dissolution medium Acetic buffer pH 7.5” value is listed as 54 μg per ml; the “Solubility, dissolution medium Phosphate buffer pH 7.5” value worked out at 0.5 μg per ml; the “Solubility, dissolution medium Water + 10% ethanol” value is on record as 10 μg per ml. The “Solubility, dissolution medium Water” value in series [1] (water) is recorded as 37 μg per ml.

Regarding `Cc1c(C(=O)NN2CCCCC2)nn(-c2ccc(Cl)cc2Cl)c1-c1ccc(Cl)cc1` [Hydrogensulfate], in series [1], the “Solubility, dissolution medium Acetic buffer pH 7.5” value came to 30 μg per ml; the “Solubility, dissolution medium Phosphate buffer pH 7.5” value is reported as 0.9 μg per ml; the “Solubility, dissolution medium Water + 10% ethanol” value was determined as 38 μg per ml. Also, in series [1] (water), the “Solubility, dissolution medium Water” value stood at 13 μg per ml.

Turning to `Cc1c(C(=O)NN2CCCCC2)nn(-c2ccc(Cl)cc2Cl)c1-c1ccc(Cl)cc1` [Methanesulfonate (solvated)], in series [1] (water), the “Solubility, dissolution medium Water” value came to 39 μg per ml. In series [1], the “Solubility, dissolution medium Water + 10% ethanol” value was found to be 48 μg per ml.

As for `Cc1c(C(=O)NN2CCCCC2)nn(-c2ccc(Cl)cc2Cl)c1-c1ccc(Cl)cc1` [Paratoluenesulfonate], in series [1], the “Solubility, dissolution medium Acetic buffer pH 7.5” value was 2.4 μg per ml; the “Solubility, dissolution medium Phosphate buffer pH 7.5” value turned out to be 0.2 μg per ml; the “Solubility, dissolution medium Water + 10% ethanol” value is 7.3 μg per ml. Also, the “Solubility, dissolution medium Water” value in series [1] (water) was determined as 3.9 μg per ml.

As to `Cc1c(C(=O)NN2CCCCC2)nn(-c2ccc(Cl)cc2Cl)c1-c1ccc(Cl)cc1` [Phosphate], in series [1], the “Solubility, dissolution medium Acetic buffer pH 7.5” value came out at 0.9 μg per ml; the “Solubility, dissolution medium Phosphate buffer pH 7.5” value stood at 0.7 μg per ml; the “Solubility, dissolution medium Water + 10% ethanol” value worked out at 7.5 μg per ml. Moreover, in series [1] (water), the “Solubility, dissolution medium Water” value came out at 1.3 μg per ml.

For `Cc1c(C(=O)NN2CCCCC2)nn(-c2ccc(Cl)cc2Cl)c1-c1ccc(Cl)cc1` [Solvated compound A], in series [1], the “Solubility, dissolution medium Acetic buffer pH 7.5” value is listed as 1.2 μg per ml and the “Solubility, dissolution medium Water + 10% ethanol” value was found to be 0.9 μg per ml. Besides, in series [1] (water), the “Solubility, dissolution medium Water” value amounted to 0.7 μg per ml.

The term solubility denotes the concentration that dissolves in the medium under given conditions. Regarding `Cc1c(C(=O)NN2CCCCC2)nn(-c2ccc(Cl)cc2Cl)c1-c1ccc(Cl)cc1` [compound A, N-Piperidino-5-(4-chlorophenyl)-1-(2,4-dichlorophenyl)-4-methylpyrazole-3-carboxamide], the “Dissolution in the dissolution medium with nothing else added” value in series [2] was “no dissolution takes place”. For the same molecule, the “Wettability in water (in words)” value in series [3] was “not wettable”. Besides, the “Amount of compound A dissolved, measured” value in series [4] (setting [6]) was 1.2.10^−3 mg/ml; in series [4] (setting [7]), 3 µg/mL. For the same molecule, the “Amount of compound A dissolved, theoretical” value in series [4] (setting [6]) is 3.5 mg/mL; in series [4] (setting [7]), 15 mg/mL. In addition, the solubility in series [4] (solvent Ethanol) was found to be 35 mg/mL (≈ 75.5 mM); in series [4] (solvent Polyethylene glycol 400), 50 mg/mL (≈ 108 mM). Besides, the Dilution in water result in series [4] (solution in polyethylene glycol 1500 at 60° C.) is given as “not dilutable”. The “Solubility of compound A” value in series [4] (solvent Polyethylene glycol 1500 at 60° C.) is 80 mg/g. In addition, the “Relative rate of passage” value in the series on Caco-2 cells (Caco-2 monolayer, Hank's medium pH 6.5, relative to compound A in suspension in Hank's medium (=1)) was found to be 1. For the same molecule, the “Permeability / ability to pass through the epithelium (in words)” value in the series on Caco-2 cells (compound dissolved in DMSO) was “very good ability and high”. The Papp A→B in series [5] is 9.6 ×10⁻⁶ cm/s. For the same molecule, the “Solubility, dissolution medium Water + 10% ethanol” value in series [1] (listed as Compound A (base)) came to 1.2 μg per ml. In series [1] (water, irrespective of the pH), the “Solubility in water (in words)” value is “practically insoluble”.
